# Test results: US8759499B2, “Lipids for transfection of Eukaryotic cells” (Molecular Transfer, Inc., priority 2005, dated 2014)
# Ends that are not written are not given here.
# Test system: CHO-K1, NIH3T3, A549, Cos-7 and BE(2)C
# Experiment: Transfection with β-galactosidase reporter plasmid pCMV•SPORT-β-gal, "before" and "after" peptide protocols, β-gal activity (ONPG, OD 405)
# Assay type: cell-based
# Conditions: FIG. 1-5
# Procedure: Transfection of CHO-K1, NIH3T3, A549, Cos-7 and BE(2)C with β-galactosidase reporter plasmid pCMV•SPORT-β-gal was carried out as follows:
# Cells were plated in a 96-well plates with 100 μl of media containing 10% fetal calf serum the day before transfection such that a desired confluency (70%-95%) was achieved. The following day a transfection agent that includes a liposomal composition of the lipid DMTS (Dimyrstyl-tetrahydroxy-spermine) and DOPE (2:1 DMTS:DOPE) and DNA were mixed in Opti-MEM to form DNA/lipid complexes. Complexes were formed by adding various amounts of lipids (0.1 to 0.35 μl) to 100 μl of Opti-MEM. DNA (100 ng) was added to 100 μl Opti-MEM. The DNA and lipid solutions were then mixed to form DNA lipid complexes. The complexes were incubated for at least 15 minutes after which added to the DNA lipid complexes, was 20 μl of various amounts of a peptide having the sequence of a Prototypical Avian reovirus fusogenic peptide provided herein, as follows:
# and incubated for 15 minutes to form a DNA/lipid/peptide complex. […] Total activity was determined by reading the OD at 405 using Bio-Rad Benchmark Microplate Spectrophotometer. […]
# were added to the DNA mixture and incubated for 15 minutes. […] Total activity was determined by reading the OD at 405 using Bio-Rad Benchmark Microplate Spectrophotometer.
sequence,measurement,setting,value
"RMPPGSCNGATAVFGNVHKKKKKKKKKKKKKKKK [peptide, Prototypical Avian reovirus fusogenic peptide with 16 lysine residues]",amount of lipid required to enhance transfection,"DMTS:DOPE 2:1 liposomes plus peptide, before or after protocol",reduced
same,effect of adding the peptide on transfection,"DMTS:DOPE 2:1 liposomes, peptide added to DNA before lipid, or to DNA/lipid complex",enhancement of transfection
